Molecular target: T1, LecA (Pseudomonas aeruginosa, UniProt Q05097)
T1 construct: FITC-labeled LecA
Assay: ELISA-type competition assay on a glycochip: inhibition of FITC-labeled LecA binding to a galactoside-functionalized surface

T1 sequence (Q05097 2-122): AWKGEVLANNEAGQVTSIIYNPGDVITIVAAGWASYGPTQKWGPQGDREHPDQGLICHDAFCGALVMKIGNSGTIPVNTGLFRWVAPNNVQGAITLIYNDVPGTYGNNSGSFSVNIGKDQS

SMILES: COCCOCCOc1cc(C#Cc2cc(OCCOCCOC)c(-c3cn(CCCO[C@@H]4O[C@H](CO)[C@H](O)[C@H](O)[C@H]4O)nn3)cc2OCCOCCOC)c(OCCOCCOC)cc1C#Cc1cc(OCCOCCOC)c(-c2cn(CCCO[C@@H]3O[C@H](CO)[C@H](O)[C@H](O)[C@H]3O)nn2)cc1OCCOCCOC [compound 22, divalent ligand 22]
- IC50: 900 nM

Source: PMC3566787, “Efficient synthesis of phenylene-ethynylene rods and their use as rigid spacers in divalent inhibitors” (Beilstein Journal of Organic Chemistry, 2013)
